ChEMBL document CHEMBL1151097, “Phenyl-glycinol based NK1 receptor antagonists towards the minimum pharmacophore” (Bioorg Med Chem Lett, 1995)

What was measured:
[1] = biological target: Substance-P receptor (Homo sapiens, UniProt P25103); experiment: Binding affinity to human Tachykinin receptor 1
[2] = biological target: Voltage-gated L-type calcium channel (Homo sapiens, UniProt Q13936+Q13698+Q01668+O60840); experiment: Inhibition of binding to L-type [Ca2+] channel; assay type: protein assay
[3] = pKa value was determined; assay type: physicochemical

Substance-P receptor, sequence (P25103 whole entry): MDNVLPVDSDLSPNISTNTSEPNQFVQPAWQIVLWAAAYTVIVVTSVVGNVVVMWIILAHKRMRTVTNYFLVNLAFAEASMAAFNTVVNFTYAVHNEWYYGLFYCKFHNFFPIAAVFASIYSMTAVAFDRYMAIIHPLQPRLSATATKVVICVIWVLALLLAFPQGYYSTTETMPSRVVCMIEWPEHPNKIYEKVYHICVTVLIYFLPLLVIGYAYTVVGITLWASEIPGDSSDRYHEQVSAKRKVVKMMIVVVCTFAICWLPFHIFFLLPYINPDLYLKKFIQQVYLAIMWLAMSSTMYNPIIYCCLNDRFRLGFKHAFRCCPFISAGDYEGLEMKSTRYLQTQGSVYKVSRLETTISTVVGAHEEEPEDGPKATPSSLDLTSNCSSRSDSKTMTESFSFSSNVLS

Structure (SMILES)	IC50 [1]	IC50 [2]	pKa [3]
Cc1cc(COC[C@@H](N)c2ccccc2)cc(C(C)(C)C)c1	13.7 nM		
CN(CC(N)=O)[C@H](COCc1cc(C(F)(F)F)cc(C(F)(F)F)c1)c1ccccc1	5.8 nM	> 10000 nM	
NC(=O)CN[C@H](COCc1cc(C(F)(F)F)cc(C(F)(F)F)c1)c1ccccc1	8 nM	2300 nM	
Cc1cc(Br)cc(COC[C@@H](N)c2ccccc2)c1	20 nM		
N[C@H](COCc1cc(Cl)cc(Cl)c1)c1ccccc1	49 nM		
CC(N)(COCc1cc(C(F)(F)F)cc(C(F)(F)F)c1)c1ccccc1 (stereo not given)	30 nM		
N[C@H](COCc1cc(C(F)(F)F)cc(C(F)(F)F)c1)c1ccccc1	13 nM	580 nM	7.93
CC(OCC(N)c1ccccc1)c1cc(C(F)(F)F)cc(C(F)(F)F)c1 (stereo not given)	4.3 nM		
COc1cc(C)cc(COC[C@@H](N)c2ccccc2)c1	135 nM		
CC(OCc1cc(C(F)(F)F)cc(C(F)(F)F)c1)C(N)c1ccccc1 (single isomer, unassigned; diastereomer A)	95 nM		
CC(OCc1cc(C(F)(F)F)cc(C(F)(F)F)c1)C(N)c1ccccc1 (single isomer, unassigned; diastereomer B)	7 nM		
